The supplement of paper PMC10307832

What was measured:
Assay in all cases: relative viability (nuclei count vs DMSO), 5 days (fraction); higher = more cells survive
HCC-44 = test system: HCC-44
Method in brief: (§1)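 Dosing by pin tool came one day after lung cancer cell lines were seeded in 1536-well plates, using either one drug or a fixed anchor-drug dose plus five library-drug doses (not always all listed) in √10 steps. After 5 days, nuclei were counted on 4× images. Relative viability is treated-well nuclei count divided by vehicle-well nuclei count, and values are medians of duplicate plates.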

NCI-H358 = test system: NCI-H358
Method in brief: as §1

EPLC-272H = test system: EPLC-272H
Method in brief: as §1

ABC-1 = test system: ABC-1
Method in brief: as §1

COR-L 105 = test system: COR-L 105
Method in brief: as §1

NCI-H647 = test system: NCI-H647
Method in brief: as §1

COR-L23 = test system: COR-L23
Method in brief: as §1

NCI-H520 = test system: NCI-H520
Method in brief: as §1

NCI-H1975 = test system: NCI-H1975
Method in brief: as §1

201T = test system: 201T
Method in brief: as §1

NCI-H727 = test system: NCI-H727
Method in brief: as §1

HCC-15 = test system: HCC-15
Method in brief: as §1

HCC-827 = test system: HCC-827
Method in brief: as §1

EKVX = test system: EKVX
Method in brief: as §1

H3255 = test system: H3255
Method in brief: as §1

LCLC-103H = test system: LCLC-103H
Method in brief: as §1

UMC-11 = test system: UMC-11
Method in brief: as §1

NCI-H1792 = test system: NCI-H1792
Method in brief: as §1

NCI-H1650 = test system: NCI-H1650
Method in brief: as §1

NCI-H2087 = test system: NCI-H2087
Method in brief: as §1

NCI-H661 = test system: NCI-H661
Method in brief: as §1

NCI-H1437 = test system: NCI-H1437
Method in brief: as §1

NCI-H1651 = test system: NCI-H1651
Method in brief: as §1

O=c1[nH]c2ccccc2n1C1CCN(CCCC(c2ccc(F)cc2)c2ccc(F)cc2)CC1 [Pimozide] + C[C@@H](Oc1cc(-c2cnn(C3CCNCC3)c2)cnc1N)c1c(Cl)ccc(F)c1Cl [Crizotinib] (partner 1 µM)
relative viability (HCC-44; first compound 0.08 µM): 0.73 | relative viability (HCC-44; first compound 0.253 µM): 0.733 | relative viability (HCC-44; first compound 0.8 µM): 0.743 | relative viability (HCC-44; first compound 2.53 µM): 0.829 | relative viability (HCC-44; first compound 8 µM): 0.75 | relative viability (NCI-H358; first compound 0.08 µM): 0.573 | relative viability (NCI-H358; first compound 0.253 µM): 0.519 | relative viability (NCI-H358; first compound 0.8 µM): 0.448 | relative viability (NCI-H358; first compound 2.53 µM): 0.335 | relative viability (NCI-H358; first compound 8 µM): 0.546 | relative viability (EPLC-272H; first compound 0.08 µM): 0.789 | relative viability (EPLC-272H; first compound 0.253 µM): 0.686 | relative viability (EPLC-272H; first compound 0.8 µM): 0.908 | relative viability (EPLC-272H; first compound 2.53 µM): 0.904 | relative viability (EPLC-272H; first compound 8 µM): 0.803 | relative viability (ABC-1; first compound 0.08 µM): 1.03 | relative viability (ABC-1; first compound 0.253 µM): 0.604 | relative viability (ABC-1; first compound 0.8 µM): 0.783 | relative viability (ABC-1; first compound 2.53 µM): 0.755 | relative viability (ABC-1; first compound 8 µM): 0.606 | relative viability (COR-L 105; first compound 0.253 µM): 0.831 | relative viability (COR-L 105; first compound 0.8 µM): 0.691 | relative viability (COR-L 105; first compound 2.53 µM): 0.645 | relative viability (COR-L 105; first compound 8 µM): 0.555 | relative viability (NCI-H647; first compound 0.08 µM): 1.03 | relative viability (NCI-H647; first compound 0.253 µM): 1.04 | relative viability (NCI-H647; first compound 0.8 µM): 0.988 | relative viability (NCI-H647; first compound 2.53 µM): 0.919 | relative viability (NCI-H647; first compound 8 µM): 0.544 | relative viability (COR-L23; first compound 0.08 µM): 0.656 | relative viability (COR-L23; first compound 0.253 µM): 0.606 | relative viability (COR-L23; first compound 0.8 µM): 0.575 | relative viability (COR-L23; first compound 2.53 µM): 0.601 | relative viability (COR-L23; first compound 8 µM): 0.575 | relative viability (NCI-H520; first compound 0.08 µM): 0.817 | relative viability (NCI-H520; first compound 0.253 µM): 0.802 | relative viability (NCI-H520; first compound 0.8 µM): 0.702 | relative viability (NCI-H520; first compound 2.53 µM): 0.819 | relative viability (NCI-H520; first compound 8 µM): 0.675 | relative viability (NCI-H1975; first compound 0.08 µM): 0.919 | relative viability (NCI-H1975; first compound 0.253 µM): 1.02 | relative viability (NCI-H1975; first compound 0.8 µM): 0.83 | relative viability (NCI-H1975; first compound 2.53 µM): 0.882 | relative viability (NCI-H1975; first compound 8 µM): 0.73 | relative viability (201T; first compound 0.08 µM): 0.995 | relative viability (201T; first compound 0.253 µM): 1 | relative viability (201T; first compound 0.8 µM): 1.03 | relative viability (201T; first compound 2.53 µM): 1.05 | relative viability (201T; first compound 8 µM): 0.964 | relative viability (NCI-H727; first compound 0.08 µM): 0.958 | relative viability (NCI-H727; first compound 0.253 µM): 0.791 | relative viability (NCI-H727; first compound 0.8 µM): 0.855 | relative viability (NCI-H727; first compound 2.53 µM): 0.765 | relative viability (NCI-H727; first compound 8 µM): 0.756 | relative viability (HCC-15; first compound 0.08 µM): 0.835 | relative viability (HCC-15; first compound 0.253 µM): 0.771 | relative viability (HCC-15; first compound 0.8 µM): 0.724 | relative viability (HCC-15; first compound 2.53 µM): 0.761 | relative viability (HCC-15; first compound 8 µM): 0.797 | relative viability (HCC-827; first compound 0.253 µM): 0.887 | relative viability (HCC-827; first compound 0.8 µM): 0.826 | relative viability (HCC-827; first compound 2.53 µM): 0.936 | relative viability (HCC-827; first compound 8 µM): 0.885 | relative viability (EKVX; first compound 0.253 µM): 0.949 | relative viability (EKVX; first compound 0.8 µM): 0.895 | relative viability (EKVX; first compound 2.53 µM): 0.865 | relative viability (EKVX; first compound 8 µM): 0.876 | relative viability (H3255; first compound 0.253 µM): 0.801 | relative viability (H3255; first compound 0.8 µM): 0.764 | relative viability (H3255; first compound 2.53 µM): 0.983 | relative viability (H3255; first compound 8 µM): 0.875 | relative viability (LCLC-103H; first compound 0.08 µM): 1 | relative viability (LCLC-103H; first compound 0.253 µM): 0.967 | relative viability (LCLC-103H; first compound 0.8 µM): 1.02 | relative viability (LCLC-103H; first compound 2.53 µM): 1.07 | relative viability (LCLC-103H; first compound 8 µM): 1.12 | relative viability (UMC-11; first compound 0.08 µM): 0.574 | relative viability (UMC-11; first compound 0.253 µM): 0.618 | relative viability (UMC-11; first compound 0.8 µM): 0.634 | relative viability (UMC-11; first compound 2.53 µM): 0.584 | relative viability (UMC-11; first compound 8 µM): 0.705 | relative viability (NCI-H1792; first compound 0.08 µM): 0.95 | relative viability (NCI-H1792; first compound 0.253 µM): 0.944 | relative viability (NCI-H1792; first compound 0.8 µM): 0.937 | relative viability (NCI-H1792; first compound 2.53 µM): 0.937 | relative viability (NCI-H1792; first compound 8 µM): 0.971 | relative viability (NCI-H1650; first compound 0.08 µM): 0.923 | relative viability (NCI-H1650; first compound 0.253 µM): 0.946 | relative viability (NCI-H1650; first compound 0.8 µM): 0.791 | relative viability (NCI-H1650; first compound 2.53 µM): 0.891 | relative viability (NCI-H1650; first compound 8 µM): 0.835 | relative viability (NCI-H2087; first compound 0.08 µM): 0.856 | relative viability (NCI-H2087; first compound 0.253 µM): 0.721 | relative viability (NCI-H2087; first compound 0.8 µM): 0.604 | relative viability (NCI-H2087; first compound 2.53 µM): 0.826 | relative viability (NCI-H2087; first compound 8 µM): 0.889 | relative viability (NCI-H661; first compound 0.08 µM): 0.975 | relative viability (NCI-H661; first compound 0.8 µM): 0.921 | relative viability (NCI-H661; first compound 2.53 µM): 0.995 | relative viability (NCI-H661; first compound 8 µM): 0.962 | relative viability (NCI-H1437; first compound 0.08 µM): 0.949 | relative viability (NCI-H1437; first compound 0.253 µM): 0.878 | relative viability (NCI-H1437; first compound 0.8 µM): 0.898 | relative viability (NCI-H1437; first compound 2.53 µM): 0.903 | relative viability (NCI-H1437; first compound 8 µM): 0.751 | relative viability (NCI-H1651; first compound 0.08 µM): 0.801 | relative viability (NCI-H1651; first compound 0.8 µM): 0.818 | relative viability (NCI-H1651; first compound 2.53 µM): 0.764 | relative viability (NCI-H1651; first compound 8 µM): 0.933
